Experiments:
[1] = system: αvβ1-induced TGF-β activation; test: TGF-β co-culture assay, CHO-αv cells with MLEC luciferase reporter cells; format: cell-based, human; settings: integrin αvβ1
Experimental: (§1) SW-β6 cells and MLECs or CHO-αv cells and MLECs were cultured in 96-well plates with test compounds or antibodies for 20 h at 37 °C in a 5% CO2 incubator. […] Measurement of MLEC luciferase production resulting from αvβ6- or αvβ1-mediated TGF-β activation was performed using the Bright-Glo Luciferase Assay System (Promega; Madison, WI, USA) according to manufacturer’s instruction. Luminescence was quantified by a Tecan Spark 10M plate reader. IC50 curves were generated using Dotmatics software suite with five-parameter logistic curve fitting. Geometric mean IC50 was calculated for each compound from multiple independent analyses.

[2] = system: IPF lung fibroblast adhesion to LAP; test: Primary cell LAP adhesion assay (cell impedance), IPF HLF; format: cell-based; settings: Homo sapiens, HLFs isolated from fibrotic (IPF) lung tissue, read-out: IC50 for blocking adhesion to LAP
Experimental: Adhesion of primary human lung cells to LAP was quantified using the xCELLigence RTCA MP instrument (ACEA Biosciences; San Diego, CA, USA) via cell impedance measurements similar to that previously described.
Adhesion assays were performed using the xCELLigence RTCA MP instrument (ACEA Biosciences; San Diego, CA, USA) on 96-well PET plates (ACEA Biosciences; 300600910) via a cell impedance measurement similar to one previously described (E6). Plates were coated with LAP (Sino Biological; 10804-H08H1) overnight at 4 °C and blocked with BSA for 2 h at 37 °C. NHLF (40,000 cells/well), dHLF (40,000 cells/well), or NHBE (20,000 cells per well) in FBS-free media were combined with small-molecule integrin inhibitors or antibodies in the plates and incubated at 37 °C with 5% CO2. […] Anti-αv antibody, 17E6, and anti-β1 antibody, P5D2, were tested at a single concentration (10 μg/ml). Cell impedance (cell index) was measured at baseline and every 3 min for up to 24 h using xCELLigence RTCA 2.1.0 Software (ACEA Biosciences). […] Geometric mean IC50 was calculated for each compound following repeat analyses of multiple donor cells.

other αv integrins = test: Human integrin ligand-binding assays, selectivity over the panel
Experimental: (§2) Integrin ligand-binding assays were performed similar to that previously described.
Microplates were coated with recombinant human integrins dissolved in PBS (2 µg/ml, overnight at room temperature). Following removal of the coating solution, plates were washed with PBS. Plates were blocked with 200 µL/well of blocking buffer (2% bovine serum albumin [BSA] in PBS) at 37 °C for 1 h. Serial dilutions of test compounds and 2 µg/ml of recombinant ligands were added: fibronectin (R&D Systems #1918-Fn) for integrin αvβ1, LAP (Sino Biological #10804-H08H1; Beijing, China) for integrins αvβ6 and αvβ8, or biotin-tagged vitronectin (Molecular Innovations, Inc. #HVNUBIO) for integrins αvβ3 and αvβ5 in binding/wash buffer (50 mM Tris-HCl, pH 7.5; 0.1% BSA, NaCl 150 mM; 0.02% Tween-20; 1 mM CaCl2; 1 mM MnCl2; 1 mM MgCl2). Plates were incubated for 2 h at 25 °C, washed, and incubated for 1 h with biotin-labeled anti-fibronectin or anti-LAP antibodies (for αvβ1 or αvβ6/αvβ8, respectively). After washing, bound antibody was incubated with peroxidase-conjugated streptavidin (Thermo Fisher #21134; 1:2000 dilution) for 30 minutes (min) at room temperature. Following an additional washing step, 100 μL TMB substrate (BD Biosciences #555214; San Jose, CA, USA) was added and integrin binding was quantified by measuring absorbance at 450 nm by a Tecan Spark 10M plate reader (Tecan; Männedorf, Switzerland).

human integrin αvβ3 = biological target: T1, human integrin αvβ3 (Homo sapiens, UniProt P05106+P06756); test: Integrin ligand-binding assay, αvβ3 (vitronectin ligand)
T1 construct: purchased R&D Systems 3050-AV
T1 sequence (P06756 31-992 limits assumed): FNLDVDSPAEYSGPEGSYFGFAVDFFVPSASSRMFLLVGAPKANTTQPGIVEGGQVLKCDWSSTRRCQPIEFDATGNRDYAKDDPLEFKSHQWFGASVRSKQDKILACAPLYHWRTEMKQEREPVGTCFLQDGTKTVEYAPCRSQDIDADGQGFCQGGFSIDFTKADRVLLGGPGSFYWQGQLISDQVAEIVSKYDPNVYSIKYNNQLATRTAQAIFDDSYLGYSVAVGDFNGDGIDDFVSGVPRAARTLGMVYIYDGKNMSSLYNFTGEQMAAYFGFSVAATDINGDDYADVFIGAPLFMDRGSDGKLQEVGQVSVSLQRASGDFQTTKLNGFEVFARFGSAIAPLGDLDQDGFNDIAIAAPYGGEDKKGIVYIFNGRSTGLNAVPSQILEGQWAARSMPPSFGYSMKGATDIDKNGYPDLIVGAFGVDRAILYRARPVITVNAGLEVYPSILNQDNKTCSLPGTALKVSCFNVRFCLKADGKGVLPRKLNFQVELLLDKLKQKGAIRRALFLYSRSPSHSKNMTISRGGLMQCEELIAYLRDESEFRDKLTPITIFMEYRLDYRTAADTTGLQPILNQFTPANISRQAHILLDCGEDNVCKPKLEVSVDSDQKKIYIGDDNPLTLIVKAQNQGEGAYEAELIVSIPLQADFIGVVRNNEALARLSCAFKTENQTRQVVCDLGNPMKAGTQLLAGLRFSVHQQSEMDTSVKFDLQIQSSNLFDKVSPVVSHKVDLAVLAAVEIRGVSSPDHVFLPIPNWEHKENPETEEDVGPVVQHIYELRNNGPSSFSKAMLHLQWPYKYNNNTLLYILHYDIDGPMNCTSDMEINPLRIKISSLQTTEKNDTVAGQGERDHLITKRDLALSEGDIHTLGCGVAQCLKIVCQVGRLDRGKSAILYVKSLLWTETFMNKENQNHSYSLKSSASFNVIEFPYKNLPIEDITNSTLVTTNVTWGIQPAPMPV
T1 sequence (P05106 27-718 limits assumed): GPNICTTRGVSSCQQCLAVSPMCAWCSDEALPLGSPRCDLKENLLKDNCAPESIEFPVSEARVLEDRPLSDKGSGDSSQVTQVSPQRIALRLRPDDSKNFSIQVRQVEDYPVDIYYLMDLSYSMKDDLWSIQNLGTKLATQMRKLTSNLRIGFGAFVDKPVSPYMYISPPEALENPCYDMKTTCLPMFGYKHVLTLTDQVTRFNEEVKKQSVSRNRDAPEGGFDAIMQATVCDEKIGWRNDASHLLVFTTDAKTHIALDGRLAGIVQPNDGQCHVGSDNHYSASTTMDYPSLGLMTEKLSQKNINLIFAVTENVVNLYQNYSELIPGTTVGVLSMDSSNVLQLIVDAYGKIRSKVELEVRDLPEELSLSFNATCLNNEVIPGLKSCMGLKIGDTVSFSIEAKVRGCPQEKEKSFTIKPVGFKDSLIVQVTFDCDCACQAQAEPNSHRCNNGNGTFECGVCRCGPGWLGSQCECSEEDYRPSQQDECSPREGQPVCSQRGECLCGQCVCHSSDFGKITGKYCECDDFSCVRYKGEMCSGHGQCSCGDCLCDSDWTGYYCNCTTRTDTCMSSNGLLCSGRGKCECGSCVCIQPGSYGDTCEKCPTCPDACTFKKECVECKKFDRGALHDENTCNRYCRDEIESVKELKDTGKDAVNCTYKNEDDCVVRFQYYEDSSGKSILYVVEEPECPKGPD
Experimental: as §2
Microplates were coated with recombinant human integrins dissolved in PBS (2 µg/ml, overnight at room temperature). Following removal of the coating solution, plates were washed with PBS. Plates were blocked with 200 µL/well of blocking buffer (2% bovine serum albumin [BSA] in PBS) at 37 °C for 1 h. […] Plates were incubated for 2 h at 25 °C, washed, and incubated for 1 h with biotin-labeled anti-fibronectin or anti-LAP antibodies (for αvβ1 or αvβ6/αvβ8, respectively).

[3] = system: Smad2 phosphorylation (canonical TGF-β signaling) in IPF PCLSs; test: Smad2 phosphorylation in PCLSs from IPF explant tissue; format: cell-based, human; settings: 7 days; n = 3 individual patients (Fig. S1B)
Experimental: Integrin αvβ1 protein levels and Smad phosphorylation levels in tissues or cells were quantified by the Meso Scale Discovery custom electrochemiluminescence assay.
Biotin-labeled antibodies for total Smad2/3, phosphorylated Smad2 (pSmad2), and total Smad2 (Cell Signaling Technology; Danvers, MA, USA), and antibodies for phosphorylated Smad3 (pSmad3) and total Smad3 (Abcam; Cambridge, UK) were utilized for pSmad electrochemiluminescence assays.
pSmad2 and total Smad2 quantitation were performed similarly to that described for pSmad3 and total Smad3 above, with the exception that U-PLEX linker conjugated biotinylated anti-pSmad2 and total Smad2 antibodies were bound to U-PLEX MSD assay plates (MSD; K15227N-2) according to manufacturer’s instruction, followed by unknown sample incubation and addition of sulfo-tag-labeled anti-Smad2/3 antibody.
Human PCLSs were generated from lung tissue explants from patients with IPF undergoing transplant surgery and cultured based on previously reported methods (E7-E12). Slices of tissue (400 µm) were cut using a Compresstome VF-300-0Z (Precisionary Instruments; Natick, MA, USA).

[4] = biological target: T2, αvβ6-induced TGF-β activation (Homo sapiens, UniProt P06756+P18564); test: TGF-β co-culture assay, SW-β6 cells with MLEC luciferase reporter cells; format: cell-based; settings: integrin αvβ6
T2 construct: expressed in transfected cells; host or cells: SW480 cells stably transfected with β6 (SW-β6), co-cultured with MLEC reporter cells
T2 sequence (P06756 31-1048): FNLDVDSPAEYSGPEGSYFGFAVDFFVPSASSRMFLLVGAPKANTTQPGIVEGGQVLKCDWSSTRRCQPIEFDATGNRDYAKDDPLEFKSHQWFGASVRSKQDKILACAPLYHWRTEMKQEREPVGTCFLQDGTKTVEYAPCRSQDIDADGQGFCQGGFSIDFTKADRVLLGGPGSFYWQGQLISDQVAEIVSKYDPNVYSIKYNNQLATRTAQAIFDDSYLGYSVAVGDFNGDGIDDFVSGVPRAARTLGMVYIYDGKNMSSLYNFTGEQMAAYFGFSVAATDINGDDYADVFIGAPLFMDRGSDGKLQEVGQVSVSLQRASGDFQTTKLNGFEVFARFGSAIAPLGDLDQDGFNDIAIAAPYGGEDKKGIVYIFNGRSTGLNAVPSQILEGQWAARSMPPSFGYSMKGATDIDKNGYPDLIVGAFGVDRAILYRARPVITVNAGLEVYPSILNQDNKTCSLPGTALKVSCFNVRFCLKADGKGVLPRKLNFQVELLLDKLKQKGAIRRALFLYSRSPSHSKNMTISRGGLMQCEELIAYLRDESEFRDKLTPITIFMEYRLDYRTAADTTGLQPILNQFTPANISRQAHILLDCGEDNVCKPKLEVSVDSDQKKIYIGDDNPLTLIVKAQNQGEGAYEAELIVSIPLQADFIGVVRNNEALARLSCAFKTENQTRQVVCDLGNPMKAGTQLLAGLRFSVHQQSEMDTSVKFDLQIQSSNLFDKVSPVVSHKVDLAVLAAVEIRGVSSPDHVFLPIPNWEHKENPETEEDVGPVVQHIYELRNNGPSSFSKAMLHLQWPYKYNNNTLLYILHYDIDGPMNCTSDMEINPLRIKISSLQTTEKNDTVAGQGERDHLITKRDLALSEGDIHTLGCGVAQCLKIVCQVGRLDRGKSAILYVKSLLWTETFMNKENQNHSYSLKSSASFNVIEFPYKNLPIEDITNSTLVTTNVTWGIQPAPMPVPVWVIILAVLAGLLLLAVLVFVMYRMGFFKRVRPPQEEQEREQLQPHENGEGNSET
T2 sequence (P18564 22-788): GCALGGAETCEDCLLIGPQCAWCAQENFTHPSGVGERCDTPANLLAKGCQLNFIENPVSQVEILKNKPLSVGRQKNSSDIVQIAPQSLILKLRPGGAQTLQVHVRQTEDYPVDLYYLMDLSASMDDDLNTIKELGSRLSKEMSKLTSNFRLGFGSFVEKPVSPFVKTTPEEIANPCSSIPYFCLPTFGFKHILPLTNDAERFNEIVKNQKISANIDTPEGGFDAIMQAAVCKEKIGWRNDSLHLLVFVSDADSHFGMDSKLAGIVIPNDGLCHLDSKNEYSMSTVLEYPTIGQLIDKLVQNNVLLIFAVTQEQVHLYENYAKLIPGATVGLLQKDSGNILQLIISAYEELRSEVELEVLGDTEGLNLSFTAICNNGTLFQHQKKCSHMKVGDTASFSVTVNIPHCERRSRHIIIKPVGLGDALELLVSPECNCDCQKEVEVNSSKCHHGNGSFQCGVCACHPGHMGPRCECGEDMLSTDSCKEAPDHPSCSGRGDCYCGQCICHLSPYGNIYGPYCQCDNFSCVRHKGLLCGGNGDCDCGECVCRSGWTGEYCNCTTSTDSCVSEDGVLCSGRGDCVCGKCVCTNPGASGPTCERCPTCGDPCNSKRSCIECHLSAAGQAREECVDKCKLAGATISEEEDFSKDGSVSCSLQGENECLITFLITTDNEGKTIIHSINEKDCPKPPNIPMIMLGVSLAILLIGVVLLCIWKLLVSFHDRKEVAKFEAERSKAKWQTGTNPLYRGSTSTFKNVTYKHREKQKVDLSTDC
Experimental: as §1

## COCCN(CCCCc1ccc2c(n1)NCCC2)CC[C@H](Nc1ncnc2ccccc12)C(=O)O [PLN-74809]
[1]; TGF-β activation
  Fold selectivity (vs αvβ6): 0.6×
[1]
  IC50: 19.2 nM
[2]
  IC50: 23.5 nM
Other αv integrins
  selectivity over other αv integrins: ≥ 445 fold
Human integrin αvβ3
  IC50: > 10000 nM
Human integrin αvβ3; ligand binding
  Fold selectivity (vs αvβ6): > 1754×
[3]
  reduction in Smad2 phosphorylation: approximately 50%
[4]; TGF-β activation
  Fold selectivity (vs αvβ6): 1×
[4]
  IC50: 29.8 nM

— article PMC8524858, “Dual inhibition of αvβ6 and αvβ1 reduces fibrogenesis in lung tissue explants from patients with IPF” (Respiratory Research, 2021)
